Values joined by “and” are separate entries in the source; they are usually repeats but may differ in a detail not shown here. Identical values can stand only once.
Key:
[1] = tested on: A-673 Ewing sarcoma cells (EWS-FLI1 Type 1); assay: 72 h GI50 assay in A-673; details: read-out: A-673 EWS-FLI1 Type 1 GI50; 72 h growth inhibition
[2] = tested on: 5838 Ewing sarcoma cells (EWS-ERG); assay: 72 h GI50 assay in 5838; details: for GI50: read-out: 5838 Ewing Sarcoma EWS-ERG GI50, 72 h growth inhibition, 5838 cells; for Ratio of median GI50 Non-Ewing sarcoma cell lines (cf Table 3):5838: selectivity for 5838 cells
[3] = tested on: ES-2 Ewing sarcoma cells (EWS-FLI1 Type 3); assay: 72 h GI50 assay in ES-2; details: read-out: ES-2 EWS-FLI1 Type 3 GI50; 72 h growth inhibition
DMS 114 cells = assay: 72 h GI50 assay in DMS 114; details: read-out: DMS 114 GI50; 72 h growth inhibition
LNCaP cells = assay: 72 h GI50 assay in LNCaP; details: read-out: LNCaP GI50; 72 h growth inhibition
A549 cells = assay: 72 h GI50 assay in A549; details: read-out: A549 GI50; 72 h growth inhibition
HeLa cells = assay: 72 h GI50 assay in HeLa; details: read-out: HeLa GI50; 72 h growth inhibition
PANC-1 cells = assay: 72 h GI50 assay in PANC-1; details: read-out: PANC-1 GI50; 72 h growth inhibition
[4] = tested on: prostate cell lines lacking TMPRSS2-ERG; assay: Median GI50 in prostate cell lines lacking TMPRSS2-ERG; details: read-out: Median GI50 in prostate cell lines, lacking TMPRSS2-ERG; unit inferred
[5] = tested on: Ewing sarcoma cell lines (TC-32, 5838, RD-ES, TC-71, A-673, ES-2, ES-7, ES-8); assay: Median GI50 in panel of Ewing sarcoma cell lines; details: for Ratio of Median GI50 non-Ewing sarcoma:Ewing sarcoma (Selectivity Index): median GI50 non-Ewing panel over Ewing panel; for GI50: read-out: Median GI50 in Ewing sarcoma cell lines, median over 8 Ewing sarcoma cell lines, 72 h; for Selectivity Index ratio Analogues:MTM (1): selectivity index relative to MTM (1)
[6] = tested on: ES-8 Ewing sarcoma cells (EWS-FLI1 Type 2); assay: 72 h GI50 assay in ES-8; details: read-out: ES-8 EWS-FLI1 Type 2 GI50; 72 h growth inhibition
HCT 116 cells = assay: 72 h GI50 assay in HCT 116; details: read-out: HCT 116 GI50; 72 h growth inhibition
DU 145 cells = assay: 72 h GI50 assay in DU 145; details: read-out: DU 145 GI50; 72 h growth inhibition
[7] = tested on: TC-32 (Ewing sarcoma, EWS-FLI1 Type 1) cell line; details: for TC-32 Ewing sarcoma EWS-FLI1 Type 1 GI50: 72 h growth inhibition, TC-32 cells; for GI50 ratio PC-3:TC-32: selectivity, GI50 in PC-3 over GI50 in TC-32
[8] = tested on: ES-7 Ewing sarcoma cells (EWS-FLI1 Type 4); assay: 72 h GI50 assay in ES-7; details: read-out: ES-7 EWS-FLI1 Type 4 GI50; 72 h growth inhibition
[9] = tested on: RD-ES Ewing sarcoma cells (EWS-FLI1 Type 2); assay: 72 h GI50 assay in RD-ES; details: read-out: RD-ES EWS-FLI1 Type 2 GI50; 72 h growth inhibition
[10] = tested on: PC-3 (prostate cancer, no ETS translocation) cell line; assay: 72 h growth inhibition (GI50) assay in PC-3; details: read-out: PC-3 Prostate cancer No ETS Translocation GI50; 72 h growth inhibition, PC-3 cells
[11] = tested on: TC-71 Ewing sarcoma cells (EWS-FLI1 Type 1); details: 72 h growth inhibition
[12] = tested on: VCaP prostate cancer cells (TMPRSS2-ERG); assay: 72 h GI50 assay in VCaP; details: for GI50: read-out: VCaP Prostate Cancer TMPRSS2-ERG GI50, 72 h growth inhibition, VCaP cells; for Ratio of median GI50 Prostate cells lacking TMPRSS2-ERG:VCaP: selectivity for VCaP over other prostate cancer cell lines
CMV promoter = CMV promoter luciferase reporter assay in stably transfected TC-32 cells (non-specific control); format: cell-based; details: 12 h; for CMV promoter driven luciferase signal: treated up to 10 μM
Excerpt: Full-length NR0B1 promoter sequence was PCR amplified using Q5 high-fidelity DNA polymerase (New England Biolabs, Ipswich, Mass.) from genomic DNA of TC-32 cells and cloned into the pGLUC-Basic 2 vector (New England Biolabs, Ipswich, Mass.). XhoI and KpnI restriction sites were incorporated into the primers. After restriction enzyme (New England Biolabs, Ipswich, Mass.) digest and purification by gel electrophoresis, the target amplicon was ligated into the pGLUC-Basic 2 vector using T4 DNA ligase (Thermo Fisher Scientific, Waltham, Mass.). Chemically competent TOP10 E. coli cells were used to propagate vectors under ampicillin selection (100 μg/mL) (Thermo Fisher Scientific, Waltham, Mass.). The resulting vectors were extracted and purified using GeneJET plasmid prep kit (Thermo Fisher Scientific, Waltham, Mass.). The purified vector was transfected into TC-32 cells using lipofectamine 3000 (Thermo Fisher Scientific, Waltham, Mass.) with subsequent G418 selection (1 mg/mL) (VWR, Radnor, Pa.). Separately, TC-32 cells were transfected with pCMV-Red Firefly Vector (Thermo Fisher Scientific, Waltham, Mass.) with subsequent puromycin selection (0.1 mg/mL) (Sigma, St. Louis, Mo.) as a control.
Selected TC-32 cells, expressing either NR0B1 or CMV luciferase reporter vectors, were seeded in clear 96-well plates at a density of 10,000 cells/well. […] After a 12 h treatment, media was removed and cells were washed 3 times with DPBS (Thermo Fisher Scientific, Waltham, Mass.). Cells were directly lysed on a plate shaker for 30 min at room temperature using 100 μL of passive membrane lysis solution. Lysates (80 μL) were transferred to a white luminescence plate. Luciferase substrate, either coelenterazine or D-luciferin (50 μL of 1× solution), for NR0B1 or CMV vectors, respectively, was added in a Glomax 96 microplate luminometer (Promega, Madison, Wis.) and luminescence was immediately measured. Delay before and after injections were set to the default of 0.4 s and a 10 s integration time was used. All reagents used in this assay were from the dual luciferase reporter assay system (Promega, Madison, Wis.). Concurrently, an additional 96 well plate was seeded and treated under the exact same conditions to determine cell viability using resazurin assay. Luminescence results were normalized to cell viability.

Compound	GI50 [1]	GI50 [2]	Ratio of median GI50 Non-Ewing sarcoma cell lines (cf Table 3):5838 [2]	GI50 [3]	GI50 (DMS 114 cells)	GI50 (LNCaP cells)	GI50 (A549 cells)	GI50 (HeLa cells)	GI50 (PANC-1 cells)	Ratio of Median GI50 non-Ewing sarcoma:Ewing sarcoma (Selectivity Index) [5]	Selectivity Index ratio Analogues:MTM (1) [5]	GI50 [6]	GI50 (HCT 116 cells)	GI50 (DU 145 cells)	TC-32 Ewing sarcoma EWS-FLI1 Type 1 GI50 [7]	GI50 ratio PC-3:TC-32 [7]	GI50 [9]	GI50 [10]	TC-71 EWS-FLI1 Type 1 GI50 [11]	GI50 [12]	also measured
C=CCOc1ccc2[nH]cc(CC(NC(=O)C(OC)C3Cc4cc5cc(OC6CC(OC7CC(O)C(O)C(C)O7)C(O)C(C)O6)c(C)c(O)c5c(O)c4C(=O)C3OC3CC(OC4CC(OC5CC(C)(O)C(O)C(C)O5)C(O)C(C)O4)C(O)C(C)O3)C(=O)OC)c2c1 (stereo not shown) [Analogue 51]	272 nM	24 nM	22.2	5370 nM	2840 nM	2230 nM	1540 nM	1710 nM	532 nM	1.1	0.7	90 nM	380 nM	298 nM	53 nM	8.6	843 nM	454 nM	636 nM	485 nM	GI50 [4]: 454 nM; GI50 [5]: 485 nM; GI50 [8]: 1660 nM; Ratio of median GI50 Prostate cells lacking TMPRSS2-ERG:VCaP [12]: 0.9
COC(=O)C(Cc1c[nH]c2ccccc12)NC(=O)C(OC)C1Cc2cc3cc(OC4CC(OC5CC(O)C(O)C(C)O5)C(O)C(C)O4)c(C)c(O)c3c(O)c2C(=O)C1OC1CC(OC2CC(OC3CC(C)(O)C(O)C(C)O3)C(O)C(C)O2)C(O)C(C)O1 (stereo not shown) [MTMSA-Trp (3), Mithramycin SA-Tryptophan, reference compound]	81 nM	6 nM	18.2	133 nM	151 nM	109 nM	89 nM	323 nM	161 nM	2.3 and 1.5	1.5	99 nM	30 nM	46 nM	16 nM	4.8	47 nM	76 nM	57 nM	60 nM	GI50 [4]: 76 nM; GI50 [5]: 47 nM; GI50 [8]: 32 nM; Ratio of median GI50 Prostate cells lacking TMPRSS2-ERG:VCaP [12]: 1.3
COC(=O)C(Cc1ccccc1)NC(=O)C(Cc1c[nH]c2ccccc12)NC(=O)C(OC)C1Cc2cc3cc(OC4CC(OC5CC(O)C(O)C(C)O5)C(O)C(C)O4)c(C)c(O)c3c(O)c2C(=O)C1OC1CC(OC2CC(OC3CC(C)(O)C(O)C(C)O3)C(O)C(C)O2)C(O)C(C)O1 (stereo not shown) [Analogue 59, MTMSA-Trp-Phe]	238 nM	39 nM	3.9	125 nM	18 nM	697 nM	1940 nM	397 nM	152 nM	2.4 and < 3	1.6	74 nM	82 nM	67 nM	37 nM	2.0	54 nM	75 nM	19 nM	21 nM	GI50 [5]: 64 nM; CMV driven luciferase expression decreased down to (CMV promoter; concentrations between 1 and 10 μM): ~75%; CMV promoter driven luciferase signal (CMV promoter): decreased; CMV promoter driven luciferase signal (CMV promoter; listed as MTMSA-Trp-Phe (59)): reduces; Ratio of median GI50 Prostate cells lacking TMPRSS2-ERG:VCaP [12]: 3.6
COC(=O)C(Cc1cn(C)c2ccccc12)NC(=O)C(OC)C1Cc2cc3cc(OC4CC(OC5CC(O)C(O)C(C)O5)C(O)C(C)O4)c(C)c(O)c3c(O)c2C(=O)C1OC1CC(OC2CC(OC3CC(C)(O)C(O)C(C)O3)C(O)C(C)O2)C(O)C(C)O1 (stereo not shown) [Analogue 45]	1010 nM	121 nM	13.3	1500 nM	1050 nM	1860 nM	2370 nM	1760 nM	1730 nM	2.4	1.6	1330 nM	826 nM	761 nM	139 nM	11.2	539 nM	1560 nM	696 nM	307 nM	GI50 [4]: 1560 nM; fold increase in selectivity ([7]; PC-3:TC-32 selectivity, comparator not stated): ~4 fold; GI50 [8]: 672 nM; Ratio of median GI50 Prostate cells lacking TMPRSS2-ERG:VCaP [12]: 5.1
COC(=O)C(Cc1c[nH]c2cc(F)ccc12)NC(=O)C(OC)C1Cc2cc3cc(OC4CC(OC5CC(O)C(O)C(C)O5)C(O)C(C)O4)c(C)c(O)c3c(O)c2C(=O)C1OC1CC(OC2CC(OC3CC(C)(O)C(O)C(C)O3)C(O)C(C)O2)C(O)C(C)O1 (stereo not shown) [Analogue 56]	262 nM	466 nM	0.9	3310 nM	2470 nM	1960 nM	941 nM	1550 nM	386 nM	0.9	0.6	401 nM	419 nM	157 nM	27 nM	6.9	1000 nM	187 nM	640 nM	319 nM	GI50 [4]: 187 nM; GI50 [5]: 466 nM; GI50 [8]: 1660 nM; Ratio of median GI50 Prostate cells lacking TMPRSS2-ERG:VCaP [12]: 0.6

Reference: patent US11224609B2, “Mithramycin derivatives having increased selectivity and anti-cancer activity” (University of Kentucky Research Foundation, priority 2017, dated 2022)
